Data reported in patent US4698352A, “4-oxo-1,4-dihydronicotinic acid derivatives, salts thereof, and antibacterial agents containing the same” (Toyama Chemical Co., Ltd., priority 1982, dated 1987).
In brackets after ≈: the same amount, converted by molar mass. Like-named read-outs stand apart in the source and are kept apart here.

Experiments:
Assay in all cases: Antibacterial activity (MIC), agar dilution
Format in all cases: cell-based
[1] = tested on: St. aureus F-137*; details: Staphylococcus aureus, 20 h, St. aureus F-137, penicillinase-producing; 10^6 cells per ml; read-out: MIC
From the text: (§1) The amount of bacteria inoculated was 10^4 cells per plate (10^6 cells per ml).
(§2) * Penicillinase-producing bacteria

[2] = tested on: E. coli TK-3*; details: Escherichia coli, 20 h, E. coli TK-3, penicillinase-producing; 10^6 cells per ml; read-out: MIC
From the text: as §1, §2

[3] = tested on: Kl. pneumoniae Y-4*; details: Klebsiella pneumoniae, 20 h, Kl. pneumoniae Y-4, penicillinase-producing; 10^6 cells per ml; read-out: MIC
From the text: as §1, §2

[4] = tested on: Ps. aeruginosa GN3379*; details: Pseudomonas aeruginosa, 20 h; Ps. aeruginosa GN3379, penicillinase-producing; 10^6 cells per ml; read-out: MIC
From the text: as §1, §2

[5] = tested on: Pro. vulgaris GN76**; details: Proteus vulgaris, 20 h; Pro. vulgaris GN76, cephalospolinase-producing; 10^6 cells per ml; read-out: MIC
From the text: as §1
(§3) ** Cephalospolinase-producing bacteria

[6] = tested on: E. coli GN5482**; details: Escherichia coli, 20 h; E. coli GN5482, cephalospolinase-producing; 10^6 cells per ml; read-out: MIC
From the text: as §1, §3

[7] = tested on: Ps. aeruginosa GN918**; details: Pseudomonas aeruginosa, Ps. aeruginosa GN918, cephalospolinase-producing, 10^6 cells per ml
From the text: as §1, §3

[8] = tested on: Kl. pneumoniae Y-41; details: Klebsiella pneumoniae, Y41, 10^6 cells per ml, 37° C., 20 hours, read-out: MIC
From the text: as §1

[9] = tested on: St. aureus FDA209P; details: Staphylococcus aureus, FDA209P, 20 h, St. aureus FDA209P; 10^6 cells per ml; 37° C., 20 hours; read-out: MIC
From the text: as §1

[10] = tested on: E. coli TK-111; details: Escherichia coli, TK111, 20 h, E. coli TK-111; 10^6 cells per ml; 37° C., 20 hours; read-out: MIC
From the text: as §1

[11] = tested on: Kl. pneumoniae Y-50; details: Klebsiella pneumoniae, Y50, 20 h, 10^6 cells per ml, 37° C., read-out: MIC
From the text: as §1

[12] = tested on: Ps. aeruginosa IFO3445; details: Pseudomonas aeruginosa; Ps. aeruginosa IFO3445; 10^6 cells per ml; 37° C., 20 hours; read-out: MIC
From the text: as §1

[13] = tested on: Pro. morganii T-216; details: Morganella morganii, 37° C.
From the text: as §1

[14] = tested on: Pro. mirabilis T-111; details: Proteus mirabilis, 37° C.
From the text: as §1

[15] = tested on: E. coli NIHJ JC-2; details: Escherichia coli, NIHJJC2, 20 h, E. coli NIHJ JC-2; 10^6 cells per ml; 37° C., 20 hours; read-out: MIC
From the text: as §1

[16] = tested on: Pro. vulgaris GN3027; details: Proteus vulgaris, GN3027, 20 h, Pro. vulgaris GN3027; 10^6 cells per ml; 37° C., 20 hours; read-out: MIC
From the text: as §1

[17] = tested on: Ent. cloacae IID977; details: Enterobacter cloacae, IID977, 20 h, Ent. cloacae IID977; 10^6 cells per ml; 37° C., 20 hours; read-out: MIC
From the text: as §1

[18] = tested on: Aci. antitratus A-6; details: 20 h, Aci. antitratus A-6; 10^6 cells per ml; 37° C., 20 hours; read-out: MIC
From the text: as §1

[19] = tested on: Ps. aeruginosa S-68; details: Pseudomonas aeruginosa, S68; Ps. aeruginosa S-68; 10^6 cells per ml; 37° C., 20 hours; read-out: MIC
From the text: as §1

[20] = T111, 10^6 cells per ml, 20 hours, read-out: MIC
[21] = T216, 10^6 cells per ml, 20 hours, read-out: MIC

Row | SMILES | MIC [1] [µg/mL] | MIC [2] [µg/mL] | MIC [3] [µg/mL] | MIC [4] [µg/mL] | MIC [5] [µg/mL] | MIC [6] [µg/mL] | MIC ([7]; 20 h, read-out: MIC) [µg/mL] | MIC [8] [µg/mL] | MIC [9] [µg/mL] | MIC [10] [µg/mL] | MIC [11] [µg/mL] | MIC [12] [µg/mL] | MIC [14, 20] [µg/mL] | MIC [15] [µg/mL] | MIC [16] [µg/mL] | MIC [17] [µg/mL] | MIC [18] [µg/mL] | MIC [19] [µg/mL] | MIC [13, 21] [µg/mL] | other results
1 | CNc1ccc(-c2cc(=O)c(C(=O)O)cn2-c2ccc(O)cc2)cc1C | 0.39 (≈ 1.11 µM) | 0.39 (≈ 1.11 µM) | 1.56 (≈ 4.45 µM) | 6.25 (≈ 17.8 µM) | 0.78 (≈ 2.23 µM) | ≤ 0.05 | 0.78 (≈ 2.23 µM) | 1.56 (≈ 4.45 µM) | 0.39 (≈ 1.11 µM) | 0.1 (≈ 0.285 µM) | 0.39 (≈ 1.11 µM) | 3.13 (≈ 8.93 µM) | 3.13 (≈ 8.93 µM) | 0.39 (≈ 1.11 µM) | 0.39 (≈ 1.11 µM) | 0.78 (≈ 2.23 µM) | 0.78 (≈ 2.23 µM) | 3.13 (≈ 8.93 µM) | – | MIC ([13]; T216, 20 h, 10^6 cells per ml): 1.56 µg/mL (≈ 4.45 µM)
2 | Cc1cc(O)ccc1-n1cc(C(=O)O)c(=O)cc1-c1ccc2c(ccn2C)c1 | ≤ 0.05 | 0.2 (≈ 0.534 µM) | 0.78 (≈ 2.08 µM) | 6.25 (≈ 16.7 µM) | 0.39 (≈ 1.04 µM) | ≤ 0.05 | 0.39 (≈ 1.04 µM) | 0.78 (≈ 2.08 µM) | ≤ 0.05 | 0.05 (≈ 0.134 µM) | 0.2 (≈ 0.534 µM) | 3.13 (≈ 8.36 µM) | 0.78 (≈ 2.08 µM) | ≤ 0.05 | 0.1 (≈ 0.267 µM) | 0.39 (≈ 1.04 µM) | ≤ 0.05 | 3.13 (≈ 8.36 µM) | 0.78 (≈ 2.08 µM) | –
3 | Cn1ccc2cc(-c3cc(=O)c(C(=O)O)cn3-c3ccc(F)cc3)ccc21 | 0.39 (≈ 1.08 µM) | 1.56 (≈ 4.31 µM) | 3.13 (≈ 8.64 µM) | 25 (≈ 69 µM) | 0.78 (≈ 2.15 µM) | ≤ 0.05 | 0.78 (≈ 2.15 µM) | 3.13 (≈ 8.64 µM) | 0.39 (≈ 1.08 µM) | 0.1 (≈ 0.276 µM) | 0.78 (≈ 2.15 µM) | 12.5 (≈ 34.5 µM) | – | 0.39 (≈ 1.08 µM) | 0.2 (≈ 0.552 µM) | 1.56 (≈ 4.31 µM) | 0.1 (≈ 0.276 µM) | 12.5 (≈ 34.5 µM) | 1.56 (≈ 4.31 µM) | MIC ([14]; T111, 20 h, 10^6 cells per ml): 3.13 µg/mL (≈ 8.64 µM)
4 | Cc1cc(O)ccc1-n1cc(C(=O)O)c(=O)cc1-c1ccccc1 | 0.2 (≈ 0.622 µM) | 0.39 (≈ 1.21 µM) | 1.56 (≈ 4.85 µM) | 12.5 (≈ 38.9 µM) | 0.2 (≈ 0.622 µM) | ≤ 0.05 | – | 0.78 (≈ 2.43 µM) | 0.2 (≈ 0.622 µM) | 0.1 (≈ 0.311 µM) | 0.1 (≈ 0.311 µM) | 6.25 (≈ 19.5 µM) | 0.78 (≈ 2.43 µM) | 0.2 (≈ 0.622 µM) | ≤ 0.05 | 0.39 (≈ 1.21 µM) | 0.78 (≈ 2.43 µM) | 3.13 (≈ 9.74 µM) | 0.39 (≈ 1.21 µM) | MIC ([7]; GN918, 20 h): 1.56 µg/mL (≈ 4.85 µM)
